Results: ChEMBL document CHEMBL1136751 (J Med Chem, 2003)

Assays:
[1] = biological target: T1, Peroxisome proliferator-activated receptor gamma (Homo sapiens, UniProt P37231)
T1 sequence (P37231 whole entry): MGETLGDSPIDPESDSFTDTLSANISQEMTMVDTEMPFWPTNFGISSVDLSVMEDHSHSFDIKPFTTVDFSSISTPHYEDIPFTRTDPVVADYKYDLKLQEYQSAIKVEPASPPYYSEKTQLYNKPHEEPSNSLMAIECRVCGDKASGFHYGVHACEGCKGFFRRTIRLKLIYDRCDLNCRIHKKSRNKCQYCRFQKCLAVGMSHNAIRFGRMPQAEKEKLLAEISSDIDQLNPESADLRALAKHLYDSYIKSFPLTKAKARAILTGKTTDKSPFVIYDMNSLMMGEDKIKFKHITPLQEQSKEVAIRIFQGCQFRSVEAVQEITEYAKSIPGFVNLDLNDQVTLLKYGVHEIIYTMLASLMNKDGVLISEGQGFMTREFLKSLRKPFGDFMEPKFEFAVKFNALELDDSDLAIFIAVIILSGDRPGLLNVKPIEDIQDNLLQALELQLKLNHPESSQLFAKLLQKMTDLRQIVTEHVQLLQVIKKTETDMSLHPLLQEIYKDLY
Description: Agonistic activity for human Peroxisome proliferator activated receptor gamma

[2] = biological target: T1, Peroxisome proliferator-activated receptor gamma; remark: listed apart in the source
Description: Receptor binding affinity to human Peroxisome proliferator activated receptor gamma against [3H]ragalitazar radioligand

[3] = biological target: T2, Peroxisome proliferator-activated receptor alpha (Homo sapiens, UniProt Q07869); assay: Receptor binding affinity to human Peroxisome proliferator activated receptor alpha against [3H]-NNC 0061-4655 radioligand
T2 sequence (Q07869 whole entry): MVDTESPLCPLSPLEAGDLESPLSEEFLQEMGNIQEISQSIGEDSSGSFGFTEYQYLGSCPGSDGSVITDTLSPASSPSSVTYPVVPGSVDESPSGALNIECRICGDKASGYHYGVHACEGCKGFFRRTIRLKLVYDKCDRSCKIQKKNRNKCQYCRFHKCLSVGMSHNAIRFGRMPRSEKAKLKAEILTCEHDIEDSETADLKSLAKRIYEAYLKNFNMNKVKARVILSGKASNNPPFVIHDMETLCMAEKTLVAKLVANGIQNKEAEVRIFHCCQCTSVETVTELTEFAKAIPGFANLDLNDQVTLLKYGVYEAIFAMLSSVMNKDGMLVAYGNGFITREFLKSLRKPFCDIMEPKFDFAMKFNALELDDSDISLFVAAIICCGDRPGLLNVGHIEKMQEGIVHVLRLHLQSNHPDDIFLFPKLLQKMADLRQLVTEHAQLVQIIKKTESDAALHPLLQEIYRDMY

[4] = biological target: T2, Peroxisome proliferator-activated receptor alpha; assay: Agonistic activity for Peroxisome proliferator activated receptor alpha; format: functional

Row | Compound | EC50 [1] [µM] | IC50 [2] [µM] | IC50 [3] [µM] | EC50 [4] [µM]
1 | CCO[C@@H](Cc1ccc(OCCc2ccc(OS(C)(=O)=O)cc2)cc1)C(=O)O [TESAGLITAZAR] | 1.3 | 0.35 | 3.8 | 1.2
2 | CCO[C@@H](Cc1ccc(OCCN2c3ccccc3Oc3ccccc32)cc1)C(=O)O [RAGAGLITAZAR] | 0.6 |  | 0.98 | 
3 | CCO[C@H](Cc1ccc(OCCN2c3ccccc3Oc3ccccc32)cc1)C(=O)O |  | > 10 | > 10 | 
